Laboratory results published in publication PMC12005787, “Synthetic Lethality of SHP2 and XIAP Suppresses Proliferation and Metastasis in KRAS‐mutant Nonsmall Cell Lung Cancer” (Advanced Science, 2025).

What was measured:
[1] = test system: NCI-H2122, A549, and NCI-H1944 cells; experiment: Cell senescence β-galactosidase staining; type: cell-based, human; conditions: A549, NCI‐H2122, and NCI‐H1944 cells
Method: Cell senescence β-galactosidase staining
NCI-H2122, A549, and NCI-H1944 cells in the logarithmic growth phase were seeded into 48-well plates and cultured overnight. The supernatant was aspirated and fresh serum-free (0%), low-serum (3%), or regular serum (10%) medium with different drugs was added for 48 h. When the supernatant was discarded, β-galactosidase staining fixation fluid were added for 15 min and β-galactosidase staining solution were imported overnight at 37 ℃.
Finally, the staining results were recorded using an inverted microscope.

[2] = biological target: T1, His‐ΔSHP2 (Homo sapiens, UniProt Q06124); experiment: Enzymatic inhibition analysis (Michaelis-Menten, Lineweaver-Burk); type: biochemical
T1 construct: His‐ΔSHP2, encompassing the peptide from amino acids 205–593 retaining PTP activity; His; made in house; host or cells: E. coli
T1 sequence (Q06124 205-593): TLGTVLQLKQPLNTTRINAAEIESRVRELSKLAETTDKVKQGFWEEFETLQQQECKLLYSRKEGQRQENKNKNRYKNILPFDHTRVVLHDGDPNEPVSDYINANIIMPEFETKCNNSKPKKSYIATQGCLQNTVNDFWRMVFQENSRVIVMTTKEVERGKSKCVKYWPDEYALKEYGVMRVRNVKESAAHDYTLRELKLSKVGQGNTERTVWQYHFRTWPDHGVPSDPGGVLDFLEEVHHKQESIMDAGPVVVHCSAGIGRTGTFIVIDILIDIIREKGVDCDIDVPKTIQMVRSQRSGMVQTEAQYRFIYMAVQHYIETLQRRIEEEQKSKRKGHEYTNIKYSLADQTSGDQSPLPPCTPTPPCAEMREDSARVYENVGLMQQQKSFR
Method: A Michaelis‐Menten model and Lineweaver‐Burk plot of SHP2 inhibition by embelin were established. In brief, enzyme kinetics of SHP2 varied with the concentrations of substrate DiFMUP and embelin, concentrations of embelin were selected at 0, 10, and 20 µM, and concentrations of DiFMUP were selected at 10, 20, 40, 80, and 160 µM. Recombinant His‐ΔSHP2 was preincubated for 30 min with embelin or DMSO at various concentrations in the absence of substrate and then assayed for enzymatic activity at different times as mentioned above.

[3] = test system: NCI‐H2122 tumor; experiment: NCI-H2122 subcutaneous transplantation tumor model; type: in vivo, BALB/c‐nu mouse; conditions: i.p., q2d
Method: NCI‐H2122 cells in the logarithmic growth phase were collected by mixing serum‐free RMPI‐1640 medium and Matrigel matrix gel, and injected subcutaneously into the right axilla of thymus‐less male BALB/c‐nu nude mice. Tumor volume was calculated according to V = ab^2/2 (where a and b are the long and short diameters of the tumor, respectively), and body weight was recorded every 3 days. When the tumor volume reached 100 mm^3, the mice were randomly divided into six groups (ten mice in each group): Control group (i.p, q2d), SHP099 (20 mg kg^−1, i.p, q2d) group, GDC‐0152 (20 mg kg^−1, i.p, q2d) group, SHP099 (20 mg kg^−1, i.p, q2d) + GDC‐ 0152 (20 mg kg^−1, i.p, q2d) co‐administration group, embelin (20 mg kg^−1, i.p, q2d) medium‐dose group and embelin (30 mg kg^−1, i.p, q2d) high‐dose group. When the tumor volume reached 1000 mm^3, all experimental mice were sacrificed, and tumor tissues and major organs, such as the heart, liver, spleen, lungs, and kidneys, were collected for further study.

[4] = test system: A549 and NCI‐H2122 cells; experiment: Compound removal from culture media (western blotting); type: cell-based, human
Text: Due to the poor membrane permeability of SHP2 catalytic inhibitors,^[ [18], [30] ^] we examined the effect of embelin on SHP2 expression and phosphorylation after removing the compound from the culture media of A549 and NCI‐H2122 cells.

[5] = test system: cancer cell lines that contain different RAS mutations; experiment: Average sensitivity of cancer cell line panel by RAS mutation status; type: cell-based
Method: Inhibitory effects of embelin on KRAS-mutant and wild-type cells are listed in Supplementary Table S7.
For the adherent cell viability assay, cells in the logarithmic growth phase were seeded in 96-well culture plates at a density of 5×103 well-1 and incubated overnight. Diluted compounds or DMSO were added, or specific treatments were incubated at 37 °C and 5% CO2 for 24 h or 48 h. Cell viability was determined using CCK-8 or CellLightTM Cell Viability Assay Kit, according to the manufacturer's protocol. The luminescence signals of the treated samples were normalized to those of the DMSO group. […]

[6] = biological target: T2, SHP2 in NCI‐H2122 cells (Homo sapiens, UniProt Q06124); experiment: Intracellular SHP2 activity (IP and DiFMUP); type: cell-based
T2 construct: endogenous in cells; host or cells: NCI-H2122
Method: To test intracellular SHP2 activity, the extract of NCI‐H2122 cells was precleared with protein A/G agarose beads and incubated with anti‐SHP2 antibody overnight at 4 °C, followed by further incubation with protein A/G agarose beads for 2 h at 4 °C. The Iimmunoprecipitates were suspended in sample buffer and detected in 96‐well black polystyrene plates using the fluorescent substrate DiFMUP under the same conditions as described above.

[7] = embelin 0, 10, 20 µM, DiFMUP 10-160 µM

Structure (SMILES) | induction of cell senescence [1] | type of inhibition of SHP2 [2] | Km of ΔSHP2 protein after addition of compound [2, 7] | Vm of ΔSHP2 protein after addition of compound [2, 7] | effect on body weight of the mice [3] | effect on weights of hearts, livers, lungs, and kidneys and structure of hearts and kidneys [3] | effect on tumor growth in vivo ([3]; embelin 20 and 30 mg kg^−1, GDC‐0152 20 mg kg^−1 + SHP099 20 mg kg^−1) | membrane permeability (inferred from removal after 6 h vs continuous 24 h treatment) [4] | IC50 ([5]; HRAS mutants) [µM] | IC50 ([5]; NRAS mutant strain) [µM] | IC50 ([5]; RAS wild‐type cell lines) [µM] | IC50 ([5]; cell lines with KRAS mutations) [µM] | effect on intracellular SHP2 activity [6]
CCCCCCCCCCCC1=C(O)C(=O)C=C(O)C1=O [Embelin] | induced senescence | noncompetitive inhibitor | unchanged | decreased | little or no effect on the body weight | no significant effect | significantly inhibited the tumor growth rate | strong membrane permeability | 44 | 19.6 | 30.8 | 16.9 | significantly inhibited
CC1(N)CCN(c2cnc(-c3cccc(Cl)c3Cl)c(N)n2)CC1 [SHP099] |  |  |  |  | little or no effect on the body weight | no significant effect |  |  |  |  |  |  | 
